This note sets out measurements from the supplement of paper PMC3493320.

pIC50: −log10 of the molar value.

This test relates to NCI-H295R. Description: IC50 (antiproliferative, ATP content). Particulars: 48 h. The gist of the method:
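Following overnight culture of adrenocortical carcinoma cells (1500 per well) in 1536-well plates with serum-free ITS-supplemented DMEM, library compounds were pin-transferred at 8 final concentrations from 0.6 nM to 46 µM. Incubation lasted 48 h at 37 °C, 5% CO2, and the CellTiter-Glo signal was read after 20 min at room temperature. Data were fitted with a four-parameter logistic model. Each IC50 came from that fit after normalisation to vehicle and positive-control wells, and compounds without a concentration response were reported as above the top dose.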
The term pIC50 denotes the negative decadic logarithm of the IC50, by convention in mol/L. A higher pIC50 goes with a small IC50. The molecule `Cc1ccc(S(=O)(=O)NC(=O)NC2CCCCCCC2)cc1` gave a pIC50 of less than 4.34.
For `O=C(O)c1ccc[n+]([O-])c1` the value was less than 4.34.
The molecule `CC(=O)Nc1cc([As](=O)(O)O)ccc1O` showed a pIC50 of less than 4.34.
In the case of `CCC(C)C(N)C(=O)O` (stereo unspecified), the negative-log IC50 (pIC50) is less than 4.34.
`CCCOC(=O)c1ccccc1` had a pIC50 of less than 4.34.
With `C1[C@@H]([C@H]([C@@H]([C@H]([N@]1CCO)CO)O)O)O`, the pIC50 is less than 4.34.
As for `CCNc1nc(Cl)nc(NCC)n1`, the pIC50 was less than 4.34.
The molecule `NC(N)=O` gave a pIC50 of less than 4.34.
`O.O=C(O)[C@@H]1[C@H]2C[C@H]3c4[nH]c5ccccc5c4CCN3C[C@@H]2CC[C@@H]1O`: the negative-log IC50 (pIC50) is less than 4.34.
As to `COc1ccc2cc([C@H](C)C(=O)[O-])ccc2c1.[Na+]`, the pIC50 is less than 4.34.
For the molecule `O=C(NC(=O)c1c(F)cccc1F)Nc1cc(Cl)c(OC(F)(F)C(F)C(F)(F)F)cc1Cl` (stereo unspecified), the negative logarithm of the IC50 (pIC50) was less than 4.34.
`O=C1[C@H]([C@H](C)C)CC[C@@H](C)C1` showed a pIC50 of less than 4.34.
For `O=C(O)c1nn(Cc2ccc(Cl)cc2Cl)c2ccccc12` the value was less than 4.34; for `CC(C)C(Br)C(=O)NC(N)=O` (stereo unspecified), less than 4.34.
The molecule `O=C(O)c1cc(O)c(O)c(O)c1` had a pIC50 of less than 4.34.
Molecule `CC(=O)N=c1sc(S(N)(=O)=O)nn1C` showed a pIC50 of less than 4.34.
Take `CCN(CC)CCOC(=O)c1cccnc1.O=C(O)CC(O)(CC(=O)O)C(=O)O`: the negative-log IC50 (pIC50) is less than 4.34.
As for `CC(=O)Oc1ccc(C(=C2CCCCC2)c2ccc(OC(C)=O)cc2)cc1`, the pIC50 was less than 4.34.
For `COC1CC(=C(c2cccs2)c2cccs2)C[N+](C)(C)C1.[Br-]` (stereo unspecified) the value was less than 4.34; for `CCN(CC)CCOC(=O)C(c1ccccc1)C1CCCCC1.Cl` (stereo unspecified), less than 4.34; for `CCC(=O)O[C@]1(C(=O)SCF)[C@H](C)C[C@H]2C3C[C@H](F)C4=CC(=O)C=C[C@]4(C)[C@@]3(F)[C@@H](O)C[C@@]21C` (stereo partly specified), less than 4.34.
For `NC(CNC([C@H](CC(C)C)N[C@]([C@@H]1CCCN1[C@]([C@H](CSSC[C@H](N)C(N[C@@H](CC3=CC=C(O)C=C3)C2=O)=O)NC([C@H](CC(N)=O)NC([C@@H](NC([C@](N2)([H])[C@@H](C)CC)=O)CCC(N)=O)=O)=O)=O)=O)=O)=O.O=C(C)O` the value was less than 4.34; for `Cc1ccsc1/C=C/C1=NCCCN1C.O=C(O)[C@@H](O)[C@H](O)C(=O)O`, less than 4.34.
The molecule `CN1C[C@H](C(=O)N[C@]2(C)O[C@@]3(O)[C@@H]4CCCN4C(=O)[C@H](Cc4ccccc4)N3C2=O)C[C@@H]2c3cccc4[nH]cc(c34)C[C@H]21` gave a pIC50 of less than 4.34.
The molecule `NCC[C@H](O)C(=O)N[C@@H]1C[C@H](N)[C@@H](O[C@H]2O[C@H](CN)[C@@H](O)[C@H](O)[C@H]2O)[C@H](O)[C@H]1O[C@H]1O[C@H](CO)[C@@H](O)[C@H](N)[C@H]1O` gave a pIC50 of less than 4.34.
Regarding `O=C1[C@H](CC[C@@H](C4=CC=C(F)C=C4)O)[C@@H]([C@]3=CC=C(O)C=C3)N1C2=CC=C(F)C=C2`, the pIC50 is less than 4.34.
In turn, `CCN1CCC[C@H]1CNC(=O)c1c(O)c(Cl)cc(Cl)c1OC` showed a negative logarithm of the IC50 (pIC50) of less than 4.34.
Turning to `O=c1cc(CO)occ1O`, the pIC50 was less than 4.34.
In turn, `CCc1ccc(C(=O)C(C)CN2CCCCC2)cc1.Cl` (stereo unspecified) had a pIC50 of less than 4.34.
In the case of `CCC(C(=O)NC(N)=O)c1ccccc1` (stereo unspecified), the pIC50 is less than 4.34.
Consider `CCOc1ccc2c(c1)C(C)=CC(C)(C)N2`, for which the pIC50 is less than 4.34.
As for `COc1cc2nc(N(C)CCCNC(=O)C3CCCO3)nc(N)c2cc1OC.Cl` (stereo unspecified), the pIC50 was less than 4.34.
As to `[C@@H]1(O[C@H](CS1)N\2C(\N=C(/C=C/2)N)=O)CO`, the pIC50 was less than 4.34.
In the case of `CC1=C(CC(=O)O)c2cc(F)ccc2/C1=C\c1ccc(S(C)=O)cc1` (stereo unspecified), the pIC50 is less than 4.34.
`COc1cc(S(C)=O)ccc1-c1nc2ncccc2[nH]1` (stereo unspecified) had a negative-log IC50 (pIC50) of less than 4.34.
As for `C[C@@H](Cc1ccccc1)NCCC(c1ccccc1)c1ccccc1.C[C@H](O)C(=O)O`, the figure is less than 4.34; as for `COC(=O)[C@H](Cc1ccccc1)NC(=O)[C@@H](N)CC(=O)O`, less than 4.34; as for `CN1CCN(CCC(=O)N2c3ccccc3Sc3ccc(C(F)(F)F)cc32)CC1`, less than 4.34.
For `CC(=O)OCC(=O)[C@H]2CC[C@H]3[C@@H]4CC\C1=C\C(=O)CC[C@]1(C)[C@H]4CC[C@]23C` the value was less than 4.34; for `C[C@@H](O)[C@H]1C(=O)N2C(C(=O)[O-])=C(SC3Cn4cnc[n+]4C3)[C@H](C)[C@H]12` (stereo partly specified), less than 4.34; for `CCCCC(O)c1ccccc1` (stereo unspecified), less than 4.34.
For `C#C[C@]1(O)C=C[C@H]2[C@@H]3CCC4=CC(=O)CC[C@@H]4[C@H]3CC[C@@]21CC`, the pIC50 was less than 4.34.
Molecule `COc1ccc2cc3[n+](cc2c1OC)CCc1cc2c(cc1-3)OCO2.[Cl-]` showed a pIC50 of less than 4.34.
For the molecule `C=C[C@@]1(C)CC(=O)[C@]2(O)[C@@]3(C)[C@@H](O)CCC(C)(C)[C@@H]3[C@H](O)[C@H](OC(C)=O)[C@@]2(C)O1`, the pIC50 is less than 4.34.
For `CCCCC(CC)COC(=O)c1ccccc1O` (stereo unspecified), the pIC50 is less than 4.34.
As for `O=C1CCCCC1CN1CCCCC1` (stereo unspecified), the pIC50 was less than 4.34.
Regarding `O=C(O)COc1ccc(CCNS(=O)(=O)c2ccccc2)s1`, the pIC50 is less than 4.34.
For `NC(=O)c1ccc([N+](=O)[O-])cc1Cl` the value was less than 4.34.
The molecule `CC(C)NCC(O)c1ccccc1Cl.Cl` (stereo unspecified) showed a negative logarithm of the IC50 (pIC50) of less than 4.34.
On to `CS(=O)(=O)OCCCCOS(C)(=O)=O`, for which the pIC50 was less than 4.34.
Turning to `CO/N=C(\C(=O)N[C@@H]1C(=O)N2C(C(=O)[O-])=C(C[n+]3cccc4c3CCC4)CS[C@H]12)c1csc(N)n1.O=S(=O)(O)O`, the pIC50 is less than 4.34.
The molecule `OC(=O)[C@@H](C(C)C)N(Cc1ccc(cc1)c2ccccc2C\3=N\N=N/N/3)C(=O)CCCC` gave a pIC50 of less than 4.34.
As for `CC(C)NCC(O)c1ccc(NS(C)(=O)=O)cc1.Cl` (stereo unspecified), the negative-log IC50 (pIC50) was less than 4.34.
For `CC(C)c1ccc2oc3nc(N)c(C(=O)O)cc3c(=O)c2c1` the value was less than 4.34.
`Cl.O=C(O)c1cn(-c2ccc(F)cc2)c2cc(N3CCNCC3)c(F)cc2c1=O` gave a pIC50 of less than 4.34.
For `CC(C)(C)c1ccc(O)cc1` the value was less than 4.34; for `CS(=O)(=O)CCNCc1ccc(-c2ccc3ncnc(Nc4ccc(OCc5cccc(F)c5)c(Cl)c4)c3c2)o1`, less than 4.34; for `Cc1ccc(S(=O)(=O)NC(=O)N[C@@H](C)Cc2ccccc2)cc1`, less than 4.34.
`COc1ccccc1O` had a pIC50 of less than 4.34.
As to `COc1ccccc1OCC(O)CO` (stereo unspecified), the pIC50 was less than 4.34.
The molecule `COc1ccc(C2C(=O)c3ccccc3C2=O)cc1` gave a pIC50 of less than 4.34.
The molecule `O.O.O.O.O.O.O=P([O-])([O-])OP(=O)([O-])OP(=O)([O-])[O-].[Na+].[Na+].[Na+].[Na+].[Na+]` had a pIC50 of less than 4.34.
In turn, `CCCCN1CCCC1C(=O)Nc1c(C)cc(C)cc1C` (stereo unspecified) gave a pIC50 of less than 4.34.
For the molecule `CCOC(=O)[C@H](CCc1ccccc1)N[C@@H](C)C(=O)N1CCC[C@H]1C(=O)O`, the pIC50 was less than 4.34.
`CNC[C@H](O)[C@@H](O)[C@H](O)[C@H](O)CO` gave a pIC50 of less than 4.34.
As for `CC(=O)NCc1c(I)c(NC(C)=O)c(I)c(C(=O)O)c1I`, the pIC50 was less than 4.34.
For `Cn1c(CCCC(=O)O)nc2cc(N(CCCl)CCCl)ccc21` the value was less than 4.34; for `Cl.NC(CO)C(=O)NNCc1ccc(O)c(O)c1O` (stereo unspecified), less than 4.34; for `COc1cc(/C=C/C(=O)N2CCN(CC(=O)N3CCCC3)CC2)cc(OC)c1OC.O=C(O)/C=C\C(=O)O`, less than 4.34.
As to `C[C@H](O)C(=O)Nc1c(I)c(C(=O)NC(CO)CO)c(I)c(C(=O)NC(CO)CO)c1I`, the pIC50 is less than 4.34.
`CCCCOC(=O)CC(CC(=O)OCCCC)(OC(C)=O)C(=O)OCCCC` gave a pIC50 of less than 4.34.
As to `CC(C)(C)OC(=O)c1ncn2c1[C@@H]1CCCN1C(=O)c1c(Br)cccc1-2`, the pIC50 is less than 4.34.
As for `NC(=S)NS(=O)(=O)c1ccc(N)cc1`, the figure is less than 4.34.
`CC(=O)O.N=C(N)NCCC[C@H](NC(=O)[C@@H]1CCCN1C(=O)[C@@H]1CSSC[C@H](N)C(=O)N[C@@H](Cc2ccc(O)cc2)C(=O)N[C@@H](Cc2ccccc2)C(=O)N[C@@H](CCC(N)=O)C(=O)N[C@@H](CC(N)=O)C(=O)N1)C(=O)NCC(N)=O` had a pIC50 of less than 4.34.
Turning to `O=c1[n-]c2[nH]c(=O)[nH]c(=O)c2[nH]1.[Na+]`, the negative logarithm of the IC50 (pIC50) is less than 4.34.
`O=c1[nH]cnc2c1ncn2[C@H]1CC[C@@H](CO)O1`: the pIC50 was less than 4.34.
Take `CO[C@@H]1[C@H](OC(=O)/C=C/C=C/C=C/C=C/C(=O)O)CC[C@]2(CO2)[C@H]1[C@@]1(C)O[C@@H]1CC=C(C)C`: the pIC50 is less than 4.34.
`C#Cc1cccc(Nc2ncnc3cc(OCCOC)c(OCCOC)cc23)c1` gave a pIC50 of less than 4.34.
In turn, `NC/C=C/C(=O)O` showed a pIC50 of less than 4.34.
In turn, `CC=CC=NNC(=O)c1ccncc1` gave a pIC50 of less than 4.34.
In the case of `Cc1ccccc1N1C(=O)c2cc(S(N)(=O)=O)c(Cl)cc2NC1C` (stereo unspecified), the pIC50 was less than 4.34.
Molecule `O=C([O-])CCC1=C(C)C/3=N\C1=C/C2=C(CCC([O-])=O)C(C)=C(/C=C(C(C=C)=C4C)\N=C4/C=C(C(C=C)=C5C)\N\C5=C3)N2.[Na+].[Na+]` showed a pIC50 of less than 4.34.
For the molecule `CC1=C(C=C/C(C)=C/C=C/C(C)=C/CO)C(C)(C)CCC1`, the pIC50 was less than 4.34.
Molecule `OCc1ccc(Cl)cc1Cl` showed a pIC50 of less than 4.34.
The molecule `CCCC(=O)Nc1c(I)cc(I)c(CC(CC)C(=O)[O-])c1I.[Na+]` (stereo unspecified) had a pIC50 of less than 4.34.
Take `Nc1nc(Cl)nc2c1ncn2[C@H]1C[C@H](O)[C@@H](CO)O1`: the negative-log IC50 (pIC50) is less than 4.34.
